“Also recorded” adds a separate entry of the source.

The conditions of series [1]: cited from earlier work.
The test system of series [2] is DLBCL patients. Put plainly: Phase I trial in DLBCL patients: glucocorticoid cohorts, dose-limiting toxicities (DLT). The format is in vivo, human. The conditions noted are these: for Safety assessment of cohort: DLBCL cohorts, antibody 5/15/60 μg/m2/d with glucocorticoid medication. Here is the method: A Phase I clinical trial was performed in patients with various B-NHL including DLBCL to evaluate the CD19×CD3 bispecific antibody construct in DLBCL patients. Patients were treated for 4-8-weeks by continuous i.v. administration of the antibody with the following step-wise dosing regimen: first week at 5 μg/m^2/d, second week at 15 μg/m^2/d and for the remaining treatment period at 60 μg/m^2/d.
Two cohorts each with 6 DLBCL patients were enrolled. The two cohorts solely differed by the dose and schedule of the glucocorticoid medication administered at the beginning of the antibody infusion for mitigation of adverse events.
Out of the twelve patients, 5 were male and 7 female. The median age was 57 years (range from 24 to 78 years). Patients had received a median of 4 prior regimens (range from 2-6). All patients had been exposed to rituximab. Eight of the 12 patients had undergone ASCT. International prognostic index (IPI) at screening ranged from 1 to 3 with a median of 2.

The subject of series [3] is patients with B-NHL. Put plainly: Neurological/psychiatric adverse events under blinatumomab continuous infusion. The class given is in vivo, human. The protocol: For the clinical trials in connection with the application of a CD19×CD3 bispecific single chain antibody for the treatment of tumorous mass of lymph node tissue and/or extranodal lymphoma caused by DLBCL, the present inventors had to develop a treatment regime which was efficient and would be well tolerated by most of the patients. To this end, the present inventors applied a step-wise application of a CD19×CD3 bispecific single chain antibody in that 5/15/60 μg/m^2/24 h was administered to patients. […] Also contemplated in the step-wise administration of a CD19×CD3 bispecific single chain antibody is a treatment regime using two of the dosages, such as 5/15 μg/m^2/24 h, 5/60 μg/m^2/24 h, or 15/60 μg/m^2/24 h for the duration of the patient's treatment. The appropriate dosage can be selected by the clinician on the basis of efficacy, tolerability and safety with a minimum of adverse effects in the patient.

Series [4] deals with malignant CD19 positive lymphocytes. Put plainly: Tumour response to blinatumomab in patients given dexamethasone prophylaxis. The format is in vivo, human. From the text:
By “complete response” is intended an absence of clinically detectable disease with normalization of any previously abnormal imaging studies such as radiographic studies. Such a response preferably persists for at least 4 to 8 weeks, sometimes 6 to 8 weeks or more than 8, 10, 12, 14, 16, 18 or 20 weeks or longer, following treatment according to the invention. Alternatively, an improvement in the disease may be categorized as being a partial response.
Detailed remission and response definitions for NHL patients are used according to Cheson et al., 1999, J Clin Oncol. April; 17(4):1244
By “partial response” is intended at least about a 50% decrease in all measurable tumor burden (i.e., the number of malignant cells present in the patient, or the measured bulk of tumor masses) in the absence of new lesions and persisting for 4 to 8 weeks or more than 8, 10, 12, 14, 16, 18 or 20 weeks or longer. A “complete response” does, however, not necessarily indicate that a disease has been cured, since a patient may relapse. However, if so, the patient can again be treated with a composition comprising a CD19×CD3 bispecific antibody as described herein.
(§1) Each of the following 5 patients in trial 103-104 (all with DLBCL) were treated with blinatumomab continuous infusion at 5 μg/m2/d for the 1st week, then 15 μg/m2/d for the 2nd week, and then 60 μg/m2/d for the remaining treatment period that could an additional 2-6 weeks.

The test system of series [5] is patients with B cell malignancies. The conditions noted are these: cited from earlier work.
The test system of series [6] is lymphoma target cells. The conditions noted are these: cited from earlier work.
Series [7] has as its system patients treated with blinatumomab. Put plainly: Dexamethasone prophylaxis to prevent neurological adverse events during blinatumomab treatment. The class given is in vivo, human. The conditions noted are these: Patient 108-010, trial 103-104, DLBCL; as other patients (20 mg dexamethasone 12 h and 1 h before) plus 100 mg prednisolone one hour before start of infusion. Here is the method: Besides the therapeutic use of dexamethasone to mitigate neurological adverse events, dexamethasone was also used as prophylaxis in order to prevent neurological adverse events.
as §1

Where [8] appears, read: non-Hodgkin's lymphoma patients.

As for `C[C@H]1C[C@@H]2[C@H]([C@@H](O)C[C@@]3(C)[C@H]2CC[C@]3(O)C(=O)CO)[C@@]2(C)C=CC(=O)C=C12` [Methylprednisolone], the Biologic half-life in series [1] was 18-36 hrs.

With `C[C@@H]1C[C@H]2[C@@H]3CCC4=CC(=O)C=C[C@]4(C)[C@@]3(F)[C@@H](O)C[C@]2(C)[C@@]1(O)C(=O)CO` [Dexamethasone], the “Safety assessment of cohort” value in series [2] is listed as “considered safe”. The DLT result in series [2] (prophylactic dexamethasone cohort: 3×8 mg at start of infusion or dose increase, 3×6 mg or 3×4 mg on following 2 days, first two patients) is reported as “one of the first two patients having a DLT”; in series [2] (“early dexamethasone” schedule: 20 mg at −12 to −6 hours and −1 hour, 3×8 mg during following 2 days, total of 5 DLBCL patients), “no DLT was observed”.

As for `C[C@]12CCC(=O)C=C1CC[C@@H]1[C@@H]2[C@@H](O)C[C@@]2(C)[C@H]1CC[C@]2(O)C(=O)CO` [Hydrocortisone], in series [1], the Biologic half-life is listed as 8-12 hrs.

As to Blinatumomab, the “Adverse effects, in particular neurological/psychiatric events, with step-wise application” value in series [3] (DLBCL patients, step-wise 5/15/60 μg/m2/24 h) was “reduced in number, ameliorated and even prevented”. Also, the Neurological adverse events entry in series [3] (Patient 109-036, follicular lymphoma, starting day 11, four days after step from 5 to 60 μg/m2/d) was “neurological adverse events (tremor and apraxia)”; in series [3] (Patient 109-038, DLBCL, 5/15/60 μg/m2/d, day 15), “developed intention tremor”; in series [3] (Patient 109-039, MCL, 5/15/60 μg/m2/d, day 17), “developed tremor and slight speech disturbance”; in series [3] (Patient 153-002, MCL, 5/15/60 μg/m2/d, day 4), “developed slight speech problems”. In addition, the “Treatment stop due to neurological/psychiatric adverse events” value in series [3] (Patient 135-001, DLBCL, day 4 after step to 60 μg/m2/d, too fast to intervene with dexamethasone) is recorded as “had to stop due to neurological/psychiatric adverse events”. The “Treatment stop due to neurological adverse event” value in series [3] (Patient 153-002, MCL, day 22, paresis disappeared without intervention) was “had to stop treatment due to paresis”. Moreover, the Tumour response result in series [4] (DLBCL patients with “early dexamethasone” schedule, Phase I) is listed as “objective responses have been observed”; in series [4] (Patient 155-001, relapsed ALL, blinatumomab 15 μg/m2/d 16 days, dexamethasone prophylaxis 8 mg) it was “complete remission”; in series [4] (patient with ALL, blinatumomab 15 μg/m2/d, dexamethasone prophylaxis days 1-3), “complete remission”. The “Tumour response of the lymphoma” value in series [4] (trial 103-104, DLBCL, blinatumomab 5/15/60 μg/m2/d, 20 mg dexamethasone prophylaxis, one patient per block) is listed as “objective response; also recorded: complete remission”. Further, the “Patients with early neurological reaction (confusion, ataxia, speech disorder, disorientation)” value in series [5] (escalating doses as bolus infusions, B cell malignancies, retrospective analysis) is 7 out of 22. Also, the Cytokine release result in series [5] (patient with B-CLL, 20 minute-infusions of 3 and 10 microgram, WO 99/54440) was “release of TNF, IL-6 and IL-8 has been found”. Moreover, the “Dose leading to elimination of lymphoma target cells in blood (doses as low as)” value in series [6] (continuously administered over four weeks, non-Hodgkin's lymphoma patients) is recorded as 0.005 milligrams per square meter per day. Further, in series [6] (dose level 0.06 milligrams/m^2/d), the “Patients with tumor regression” value is “all seven patients”. Moreover, the “Dose level at which partial and complete tumor regressions were first observed” value in series [6] (setting [8]) was 0.015 milligrams/m^2/d. In addition, the “Tumor cells in bone marrow and liver” value in series [6] (setting [8]) is “clearance of tumor cells from bone marrow and liver”.

For the compound `C[C@]12C=CC(=O)C=C1CC[C@@H]1[C@@H]2C(=O)C[C@@]2(C)[C@H]1CC[C@]2(O)C(=O)CO` [Prednisone], the Biologic half-life in series [1] is 18-36 hrs.

`C[C@]12C=CC(=O)C=C1CC[C@@H]1[C@@H]2[C@@H](O)C[C@@]2(C)[C@H]1CC[C@]2(O)C(=O)CO` [Prednisolone]: in series [7], the “Discontinuation due to neurological/psychiatric adverse events” value is reported as “did not have to discontinue”. The “Safety assessment of cohort” value in series [2] is “considered safe”. The DLT entry in series [2] (prednisolone DLBCL cohort: 100 mg prednisolone 1 hour prior to start, antibody 5/15/60 μg/m2/d) is given as “just one DLT (reversible CNS event grade 3)”. Also, the Biologic half-life in series [1] was 18-36 hrs.

Source of the values: patent US10130638B2, “Prevention of adverse effects caused by CD3 specific binding domains” (AMGEN RESEARCH (MUNICH) GMBH, priority 2010, dated 2018).
